One data set has as its system RM1-BM-Luc cells. Nature of the data set: Combination and survival study, RM1-BM-Luc syngeneic model. In kind it is in vivo, C57BL/6 mice. The settings on record: RM1-BM-Luc in C57BL/6, day 14, IVMT-Rx-4 30 mg/kg and/or Docetaxel 5 mg/kg 3X a week for two weeks. As for the experimental part: (§1) Both syngeneic (C57BL/6) and athymic nude mice were used for survival studies. Tumor cells (RM1-BM-Luc or PC3-ML-Luc) were injected intracardially in a cohort of 40 animals. […] In the combination groups, both regimens were administered 3X a week for two-weeks at the same dose as a single therapy. Animals were imaged periodically and maintained until euthanization was required.
(§2) Fig. 5. […] A and B) RM1-BM-Luc (A) or PC3-ML-Luc (B) cells were implanted I.C. in C57BL/6 and athymic nude mice, respectively. […] BLI images were used to detect bone metastases (the percentage incidence of bone metastases in animals was calculated at a single time point, day 14). Values are presented at the bottom panel of the respective group (red, number of animals positive for metastasis and black, total number of experimental animals). C and D) Animals were kept until mandated euthanasia based on IACUC guidelines, considered as disease associated death. The Kaplan–Meier survival curves were generated using GraphPad in both models as described in (A) and (B), respectively. E and F) Log-rank test was performed and values between different experimental groups are presented.

In the next data set the test system is PC3-ML-Luc cells. Nature of the data set: Combination and survival study, PC3-ML-Luc model. It counts as in vivo. The settings on record: PC3-ML-Luc in athymic nude mice, day 14, IVMT-Rx-4 30 mg/kg and/or Docetaxel 5 mg/kg 3X a week for two weeks. As for the experimental part:
as §1, §2

Data set [1] relates to HS5, RWPE-1, C4–2B, PC3-ML, ARCaP-M and RM1-BM cells. Nature of the data set: Colony formation (clonal) assay. The following applies: 50 μM, six repeated doses over a two-week period, tumor and non-tumor cells. In kind it is cell-based, human and murine. The protocol: 200 cells/well were seeded in triplicate in 6-well plates. […] The colonies were fixed with ice-cold Methanol and stained with 0.5% crystal violet and counted.
Fig. 1. Primary characterization of IVMT-Rx-4. A) Chemical structure (upper panel) and synthesis scheme (lower panel). […] All proteins were extracted, and Western blotting was performed immediately after heating. Quantifications were obtained in the absence (control) or presence of IVMT-Rx-4 and values are presented as percentage of RT (room temperature) normalized for the experimental groups (control, IVMT-Rx-4). SOD (Superoxide dismutase) was used as an endogenous control. […] Colonies were stained with crystal violet and counted (n = 3 ± SD; ns: non-significant). […] Invaded cells were stained with crystal violet. Top panel: representative photograph of invaded cells under different experimental settings. Bottom panel: graphical representation of number of invaded cells/field for different cell lines (n = 3 ± SD; * p < 0.05).

Data set [2] is described as follows: Thermodynamic solubility in PBS, pH 7.4. In kind it is physicochemical.
Data set [3] in a line: Log D by shake flask (pH 7.4). It counts as physicochemical. The following applies: pH 7.4, octanol/phosphate buffer. The protocol: Sodium Phosphate buffer pH 7.4 (10 mM) was used as the aqueous phase and octanol was used as the organic phase. […] The sealed plate was incubated at 25 °C with continuous agitation at 2000 rpm for 2 hrs. Samples were then separated by centrifugation, diluted 100-fold with a mixture of H20 and acetonitrile containing internal standard, and analyzed via LC-MS/MS. The Log D value was calculated using the following equation: […]

A further data set relates to Caco-2 cell monolayer. Nature of the data set: Caco-2 bidirectional permeability. It counts as in vitro ADME. The protocol:
To prepare the Caco-2 cell monolayer, 50 µL and 25 µL of cell culture medium (Dulbecco’s modified Eagle’s medium, DMEM) were added to each well of the inserts and reservoir, respectively, within a 96-well HTS Transwell plate (Corning, NY, USA). The plate was incubated at 37 °C and 5% CO2 for 1 hr. prior to cell seeding. Caco-2 cells were then diluted to 6.86 x 10^5 cells/mL using culture medium and 50 µL of cell suspension were seeded into the plate, and incubated at 37 °C, 5% CO2, and 95% relative humidity for 14-18 days. During this time, the cells were cultivated with media replacements occurring every other day. Cells were allowed to grow and differentiate and the integrity of the Caco-2 cell monolayer was evaluated by measurement of transepithelial electrical resistance (TEER) using a Millicell Epithelial Volt-Ohm measuring system (Millipore, USA).
Prior to the assay, the established monolayer was washed twice with pre-warmed HBSS and incubated at 37 °C for 30 minutes. A bidirectional permeability assay was performed simultaneously using two different plates as described previously (Supplementary Reference: Cui Y, Desevaux C, Truebenbach I, Sieger P, Klinder K, Long A, Sauer A. A Bidirectional Permeability Assay for beyond Rule of 5 Compounds. Pharmaceutics. 2021 Jul 27;13(8):1146. doi: 10.3390/pharmaceutics13081146. PMID: 34452112; PMCID: PMC8400635.): one assessed permeability from the apical to the basolateral side, while the other assessed from the basolateral to the apical side. […] For apical to basolateral permeability, 108 µL of working solution was loaded into the apical compartment, whereas 308 µL of working solution was added to the basolateral compartment for basolateral to apical permeability. The samples collected from donor and receiver compartment were mixed with 72 µL transport buffer and 240 µL of acetonitrile containing internal standard (IS, 100 nM alprazolam, 200 nM Caffeine and 100 nM tolbutamide), centrifuged at 1000 rpm for 10 minutes. […] In doing so, the following equations were used: […]
Where, Papp is apparent permeability (cm/s x 10^-6), dQ/dt is the rate of drug transport (pmol/second), A is the surface area of the membrane (cm^2), and D0 is the initial donor concentration (nM; pmol/cm^3). (B-A) indicates basolateral to apical permeation, where (A-B) indicates apical to basolateral.
(Passage across Caco-2 layers is used to estimate intestinal permeability.)

Data set [4] is described as follows: Stability in liver microsomes with NADPH and UDPGA. The settings on record: all species (human, monkey, dog, rat, mouse), NADPH and UDPGA added. In kind it is in vitro ADME. The protocol:
Test samples were incubated at 37 °C, and Verapamil was used as a positive control. Samples were drawn from the incubation solution at different timepoints, centrifuged, then diluted with ultra-pure H20 and analyzed via LC-MS/MS. The natural logarithm of the remaining parent drug at each timepoint was plotted against incubation time, and the following equation was used to calculate the in vitro half-life:
in vitro t1/2 = -(0.693/k), where k is the rate constant.

For a further data set, the target named is T1, CYP3A4 (Homo sapiens, UniProt P08684).
T1 construct: in the presence of human liver microsomes; from tissue; host or cells: human liver microsomes
T1 sequence (P08684 whole entry): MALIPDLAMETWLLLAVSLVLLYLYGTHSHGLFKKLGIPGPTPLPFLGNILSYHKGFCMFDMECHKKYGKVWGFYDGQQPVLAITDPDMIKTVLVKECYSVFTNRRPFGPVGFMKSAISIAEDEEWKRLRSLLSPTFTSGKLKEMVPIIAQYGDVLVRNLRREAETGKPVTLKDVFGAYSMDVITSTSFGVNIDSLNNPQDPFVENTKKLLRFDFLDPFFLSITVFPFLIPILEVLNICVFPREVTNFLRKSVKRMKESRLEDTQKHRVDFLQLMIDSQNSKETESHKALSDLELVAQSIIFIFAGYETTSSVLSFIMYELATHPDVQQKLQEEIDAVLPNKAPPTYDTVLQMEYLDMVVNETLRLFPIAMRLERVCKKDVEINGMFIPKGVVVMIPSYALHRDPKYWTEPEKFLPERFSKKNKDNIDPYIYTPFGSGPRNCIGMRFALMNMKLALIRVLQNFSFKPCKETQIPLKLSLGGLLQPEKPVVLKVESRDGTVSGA
Nature of the data set: Time dependent CYP inhibition (TDI). The following applies: human liver microsomes, with or without NADPH. It counts as in vitro ADME. The protocol:
Then, the specific CYP3A4 substrate was added, and aliquots were collected at various time points. Samples were then diluted with ultra-pure water and analyzed by LC-MS/MS. Area ratio and remaining Activity (%) were calculated as above and IC50 values was calculated using Excel XLfit 5.3.1.3.
(Liver microsomes are a subcellular fraction often used to study metabolism.)

The target of another data set is T2, PXR (Homo sapiens, UniProt O75469).
T2 construct: expressed in transfected cells; host or cells: DPX2 cells
T2 sequence (O75469 1-434): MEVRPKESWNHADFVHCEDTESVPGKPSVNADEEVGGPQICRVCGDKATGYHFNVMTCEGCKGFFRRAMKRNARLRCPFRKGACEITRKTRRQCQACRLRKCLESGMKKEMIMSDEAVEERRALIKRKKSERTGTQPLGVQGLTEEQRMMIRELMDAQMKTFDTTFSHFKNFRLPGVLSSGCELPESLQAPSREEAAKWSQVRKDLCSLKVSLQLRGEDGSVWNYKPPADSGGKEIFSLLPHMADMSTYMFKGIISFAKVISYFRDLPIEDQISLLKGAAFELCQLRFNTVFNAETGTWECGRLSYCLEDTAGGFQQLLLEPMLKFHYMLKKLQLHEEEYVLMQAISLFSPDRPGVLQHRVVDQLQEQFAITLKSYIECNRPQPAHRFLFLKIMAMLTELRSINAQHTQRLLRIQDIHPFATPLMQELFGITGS
The data set can be described thus: PXR assay using DPX2 cells. In kind it is cell-based. The protocol: DPX2 cells were initially cultured in T-75 flasks and maintained at 37°C in a humidified incubator with 5% CO2 and 95% relative humidity. Cells were allowed to reach 70-80% confluence prior to subculture. Next, cells were transferred to a culture plate and incubated for an additional 24 hours to allow for attachment and recovery prior to treatment. […] Cell viability and luciferase activity were measured using the CellTiter-Fluor™ Cell Viability Assay and One-GloTM Luciferase Assay System, respectively. Luciferase activity was normalized to viable number and fold activation of PXR was calculated using the following equation: […]

Data set [5] concerns Salmonella typhimurium TA98 & TA100. Nature of the data set: Mini-Ames assay. It counts as cell-based. The protocol: The mini-AMES assay was performed in Pharmaron, Inc. following the standard protocol as developed by the in-house scientist. […] The assay was conducted in the presence or absence of the S9 mix along with concurrent negative/solvent control and positive controls.

Regarding `CC(=O)O[C@@]12CO[C@@H]1C[C@H](O)[C@@]1(C)C(=O)[C@H](O)C3=C(C)[C@@H](OC(=O)[C@H](O)[C@@H](NC(=O)OC(C)(C)C)c4ccccc4)C[C@@](O)([C@@H](OC(=O)c4ccccc4)[C@H]21)C3(C)C` [Docetaxel, reference compound], the “bone metastases, Incident/Total number tested” value was 5/8 in the data set with RM1-BM-Luc cells and 3/8 in the data set on PC3-ML-Luc cells.

On to `Cc1cc(NC(=O)c2nc3nc4c(c(=O)n3[nH]2)CCC4)c(C)cc1NC(=O)CCc1nnc(-c2ccccc2)o1` [PDZ1i, reference compound], for which the “cell proliferation (colony formation)” value in data set [1] is reported as “did not inhibit cell proliferation”. In [2], the “Thermodynamic solubility in PBS, pH 7.4” value is reported as 10 mg/ML. Further, the “Log D by shake flask (pH 7.4)” value in data set [3] came out at 0.5. In addition, the “Caco-2 Efflux ratio” value in the data set on Caco-2 cell monolayer (B-A/A-B) is 300. In the data set with Caco-2 cell monolayer (apical to basolateral, 10 µM), the “Caco-2 Bidirectional A-B” value came to 0.04 ×10⁻⁶ cm/s. Further, the “Caco-2 Bidirectional B-A” value in the data set with Caco-2 cell monolayer (basolateral to apical, 10 µM) worked out at 11.5 ×10⁻⁶ cm/s. For the same compound, in data set [4], the “t½ in liver microsomes” value is recorded as “Minimal degradation: > 4 hr t½ in all species”. Also, the “Time-dependent inhibition (TDI), CYP3A4” value at CYP3A4 is given as “No TDI”. Also, the PXR assay entry on PXR is on record as “No induction”. In addition, the “Mini-Ames Assay (2-strain option: TA98 & TA100)” value in data set [5] is listed as “Negative”.
